Earlier results, collected in US7972386B2, “Bleaching of substrates” (Conopco, Inc., priority 2005, dated 2011).

Conditions: at 20° C.

water solubility: 10.8 g per litre
Structure (SMILES): CN1CCN(C)CCN(C)CC1.CN1CCN(C)CCN(C)CC1.F[P-](F)(F)(F)(F)F.F[P-](F)(F)(F)(F)F.O.[Mn+4].[Mn+4].[O-2].[O-2].[O-2] [[Mn2O3(Me3-TACN)2](PF6)2•H2O, [Mn2O3(Me3-TACN)2] (PF6)2.H2O]
